# Where two headings read alike, the source gives them in different places.
# Key:
# [1] = biological target: T1, human α1A‐adrenoceptor (Homo sapiens, UniProt P35348); assay: ^3H‐prazosin whole‐cell radioligand binding, CHO‐α1A cells; conditions: for Kd: CHO‐α1A cells, given as log KD (negative), mean ± SEM; for Affinity selectivity ratio α1A vs α1B: higher affinity for α1A than α1B; for Affinity selectivity ratio α1A vs α1D: higher affinity for α1A than α1D
# T1 construct: expressed in transfected cells; host or cells: CHO-K1
# T1 sequence (P35348 1-466): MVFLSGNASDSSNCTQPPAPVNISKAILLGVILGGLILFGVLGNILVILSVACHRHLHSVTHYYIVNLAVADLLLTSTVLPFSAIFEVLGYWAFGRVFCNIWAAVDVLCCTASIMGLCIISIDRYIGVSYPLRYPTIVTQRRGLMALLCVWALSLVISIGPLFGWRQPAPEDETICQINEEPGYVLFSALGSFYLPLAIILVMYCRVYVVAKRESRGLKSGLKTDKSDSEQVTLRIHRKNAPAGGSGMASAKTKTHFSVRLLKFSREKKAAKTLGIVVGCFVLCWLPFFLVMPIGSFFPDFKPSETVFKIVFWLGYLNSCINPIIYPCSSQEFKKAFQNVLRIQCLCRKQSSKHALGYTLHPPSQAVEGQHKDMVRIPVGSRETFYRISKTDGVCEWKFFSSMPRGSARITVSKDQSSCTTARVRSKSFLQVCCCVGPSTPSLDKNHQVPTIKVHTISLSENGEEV
# [2] = biological target: T2, human α1B‐adrenoceptor (Homo sapiens, UniProt P35368); assay: ^3H‐prazosin whole‐cell radioligand binding, CHO‐α1B cells; conditions: CHO‐α1B cells
# T2 construct: expressed in transfected cells; host or cells: CHO-K1
# T2 sequence (P35368 1-520): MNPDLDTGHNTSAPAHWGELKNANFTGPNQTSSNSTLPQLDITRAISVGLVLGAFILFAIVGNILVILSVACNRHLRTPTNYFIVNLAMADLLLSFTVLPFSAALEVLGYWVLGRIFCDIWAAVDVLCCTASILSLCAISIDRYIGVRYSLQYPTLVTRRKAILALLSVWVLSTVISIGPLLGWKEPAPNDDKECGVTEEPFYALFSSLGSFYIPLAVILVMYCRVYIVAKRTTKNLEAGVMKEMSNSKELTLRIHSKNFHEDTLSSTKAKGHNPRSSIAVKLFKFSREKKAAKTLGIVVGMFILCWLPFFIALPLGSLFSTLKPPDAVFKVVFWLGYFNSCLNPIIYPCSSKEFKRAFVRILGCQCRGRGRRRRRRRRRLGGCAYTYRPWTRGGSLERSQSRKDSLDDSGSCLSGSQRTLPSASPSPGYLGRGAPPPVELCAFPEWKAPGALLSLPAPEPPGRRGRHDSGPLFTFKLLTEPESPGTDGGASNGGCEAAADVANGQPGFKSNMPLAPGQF
# [3] = biological target: T3, human α1D‐adrenoceptor (full length) (Homo sapiens, UniProt P25100); assay: ^3H‐prazosin whole‐cell radioligand binding, CHO‐α1D cells
# T3 construct: human α1D‐adrenoceptor (full length) were used; expressed in transfected cells; host or cells: CHO-K1
# T3 sequence (P25100 1-572): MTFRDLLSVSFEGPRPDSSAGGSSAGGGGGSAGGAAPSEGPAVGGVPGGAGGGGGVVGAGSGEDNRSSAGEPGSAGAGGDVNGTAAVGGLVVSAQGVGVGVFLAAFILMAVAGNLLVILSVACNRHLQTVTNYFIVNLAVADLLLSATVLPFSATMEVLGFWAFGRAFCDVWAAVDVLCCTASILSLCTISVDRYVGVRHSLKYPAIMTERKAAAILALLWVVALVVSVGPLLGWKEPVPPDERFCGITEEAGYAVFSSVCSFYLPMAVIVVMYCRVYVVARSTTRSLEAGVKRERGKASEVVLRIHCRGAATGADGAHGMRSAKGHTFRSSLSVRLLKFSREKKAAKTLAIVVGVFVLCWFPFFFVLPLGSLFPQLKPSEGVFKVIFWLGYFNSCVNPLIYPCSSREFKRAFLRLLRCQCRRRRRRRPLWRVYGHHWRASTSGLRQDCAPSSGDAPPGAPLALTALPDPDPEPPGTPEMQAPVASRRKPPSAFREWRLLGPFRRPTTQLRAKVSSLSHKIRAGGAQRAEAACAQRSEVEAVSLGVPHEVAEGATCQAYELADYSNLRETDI
# [4] = biological target: T1, human α1A‐adrenoceptor; assay: Intracellular free calcium mobilization, CHO‐α1A cells; type: cell-based; conditions: CHO‐α1A cells; for Log efficacy ratio KD /EC50: binding KD and calcium EC50; for EC50: given as log EC50 (negative), read-out: Intracellular calcium release Log EC50 (converted); for Intracellular calcium release % ionomycin: maximal response as % of 10 µM ionomycin
# [5] = biological target: T2, human α1B‐adrenoceptor; assay: Intracellular free calcium mobilization, CHO‐α1B cells; type: cell-based; conditions: CHO‐α1B cells; for EC50: given as log EC50 (negative numbers), read-out: Intracellular calcium release Log EC50 (converted); for Log efficacy ratio KD /EC50: intrinsic efficacy ratio, KD from binding / EC50 calcium; for Intracellular calcium release % ionomycin: maximal response as % of 10 µM ionomycin response
# [6] = biological target: T3, human α1D‐adrenoceptor (full length); assay: Intracellular free calcium mobilization, CHO‐α1D cells; type: cell-based; conditions: CHO‐α1D cells; for Log efficacy ratio KD /EC50: intrinsic efficacy ratio, binding KD / calcium EC50; for EC50: log values given negative, read-out: Intracellular calcium release Log EC50 (converted)
# [7] = biological target: T1, human α1A‐adrenoceptor; assay: ERK1/2‐phosphorylation (Surefire Alphascreen), CHO‐α1A cells; type: cell-based; conditions: CHO‐α1A cells, ^a bi‐phasic: initial stimulatory part; for EC50: 2–4 min, ^b also active in parent CHO cells, read-out: ERK1/2‐phosphorylation Log EC50 (converted); for ERK1/2‐phosphorylation % PDBu: % of 10 µM PDBu
# [8] = biological target: T2, human α1B‐adrenoceptor; assay: ERK1/2‐phosphorylation (Surefire Alphascreen), CHO‐α1B cells; type: cell-based; conditions: CHO‐α1B cells, for bi‐phasic responses the initial stimulatory part; for EC50: read-out: ERK1/2‐phosphorylation Log EC50 (converted); for ERK1/2‐phosphorylation % PDBu: maximal response as % PDBu response
# [9] = biological target: T3, human α1D‐adrenoceptor (full length); assay: ERK1/2‐phosphorylation (Surefire Alphascreen), CHO‐α1D cells; type: cell-based; conditions: for EC50: log values given negative, read-out: ERK1/2‐phosphorylation Log EC50 (converted)
# [10] = tested on: parental CHO cell line without any transfected receptors; assay: ERK1/2‐phosphorylation, parent CHO cells without transfected receptors; type: cell-based, Chinese hamster; conditions: Cricetulus griseus, CHO; read-out: ERK1/2-phosphorylation % PDBu at 100μM
# [11] = biological target: T3, human α1D‐adrenoceptor (full length); assay: ^3H‐cAMP accumulation, CHO‐α1D cells; type: cell-based; conditions: cAMP accumulation without forskolin
# [12] = biological target: T3, human α1D‐adrenoceptor (full length); assay: ^3H‐cAMP accumulation in the presence of 10 μM forskolin, CHO‐α1D cells; type: cell-based; conditions: CHO‐α1D cells; for cAMP (in presence of forskolin) Fold increase: fold increase of the forskolin response
# [13] = biological target: T1, human α1A‐adrenoceptor; assay: ^3H‐cAMP accumulation, CHO‐α1A cells; type: cell-based; conditions: CHO‐α1A cells
# [14] = biological target: T1, human α1A‐adrenoceptor; assay: ^3H‐cAMP accumulation in the presence of 10 μM forskolin, CHO‐α1A cells; type: cell-based; conditions: CHO‐α1A cells; response at 100 μM ligand, no EC50 obtained
# [15] = tested on: parental CHO cell line without any transfected receptors; assay: Forskolin‐stimulated cAMP accumulation, parent CHO cells without transfected receptors; type: cell-based, Chinese hamster; conditions: CHO cells without transfected receptors; in presence of forskolin
# [16] = biological target: T2, human α1B‐adrenoceptor; assay: ^3H‐cAMP accumulation, CHO‐α1B cells; type: cell-based; conditions: CHO‐α1B cells; % forskolin maximum response
# [17] = CHO‐α1D cells, given as log KD (negative), mean ± SEM, 'early plateau' = specific binding not fully inhibited
# [18] = CHO‐α1D cells, maximal response as % of PDBu
# [19] = in presence of forskolin, log values given negative
Structure (SMILES),Affinity selectivity ratio α1A vs α1B [1] [fold],Affinity selectivity ratio α1A vs α1D [1] [fold],"Kd [3, 17] [µM]",Log efficacy ratio KD /EC50 [4],EC50 [4] [µM],Intracellular calcium release % ionomycin [4] [%],EC50 [5] [µM],Log efficacy ratio KD /EC50 [5],Intracellular calcium release % ionomycin [5] [%],Log efficacy ratio KD /EC50 [6],EC50 [6] [µM],EC50 [7] [µM],ERK1/2‐phosphorylation % PDBu [7] [%],EC50 [8] [µM],ERK1/2‐phosphorylation % PDBu [8] [%],EC50 ([9]; CHO‐α1D cells) [µM],"ERK1/2‐phosphorylation % PDBu [9, 18] [%]",Emax at 100 µM [10] [%],cAMP Log EC50 [11],cAMP (in presence of forskolin) Fold increase [12],other results
COc1nc(C)nc(Cl)c1N=C1NCCN1 [Moxonidine],11.7,3.8,110,1.97,0.309,59.3 ± 4.5,0.324,3.02,57.9 ± 2.1,1.25,6.17,0.141,78.0 ± 7.2,0.912,102.0 ± 6.5,14.8,16.4 ± 1.6,3.1 ± 1.9,No response,No response,"Kd [1]: 28.8 µM; Kd ([2]; given as log KD (negative), mean ± SEM): 339 µM; Kd ([2]; Log KD, ^3H‐prazosin binding, whole‐cell binding (from Table 1), given as log KD (negative numbers)): 339 µM; Kd ([3]; 3H‐prazosin binding Log KD, CHO‐α1D cells, whole‐cell binding (from Table 1), log values given negative): 110 µM; Affinity selectivity ratio α1B vs α1D ([3]; higher affinity for α1D than α1B): 3.1 fold; Intracellular calcium release % ionomycin ([6]; maximal response as % of 10 µM ionomycin): 16.6 ± 2.9%; cAMP (in presence of forskolin) Log EC50 [12, 19]: No response"
NCC(O)c1ccc(O)cc1 (stereo not drawn) [Octopamine],>2.8,>2.8,–,2.66,0.794,57.5 ± 2.1,1.23,>2.91,54.9 ± 2.9,>2.20,6.31,4.17,81.2 ± 6.8,7.76,76.1 ± 6.8,18.6,–,2.9 ± 1.8,No response,1.17 ± 0.06,"Kd ([1]; Log KD α1A, ^3H‐prazosin whole cell binding): 363 µM; IC50 ([2]; printed as IC50> log value): > 1000 µM; 3H‐prazosin binding log IC50 (bound, printed in Log KD column) ([3]; CHO‐α1D cells, whole‐cell binding, given as IC50 > log value): IC50 > −3; IC50 ([3]; CHO‐α1D cells, printed as IC50> log value): > 1000 µM; ERK1/2‐phosphorylation % PDBu [9]: 14.5 ± 5.9%; cAMP accumulation % forskolin at 100 µM ([13]; response at 100 μM ligand, no EC50 obtained): 18.0 ± 1.5%; cAMP accumulation (in presence of forskolin) Fold increase at 100 µM [14]: 1.89 ± 0.06 fold; EC50 [12, 19]: 1.82 µM; cAMP accumulation (in presence of forskolin) Log EC50 [15]: No response"
CNC[C@H](O)c1cccc(O)c1 [R‐phenylephrine],–,–,22.4,–,–,58.3 ± 2.9,–,–,67.0 ± 3.3,–,0.0631,–,84.5 ± 4.5,–,77.0 ± 4.8,0.676,15.8 ± 2.9,–,No response,–,"cAMP accumulation % forskolin ([13]; % of 10 µM forskolin response): 132.5 ± 4.5%; cAMP accumulation % forskolin [16]: 86.2 ± 5.3%; EC50 [12, 19]: 0.17 µM"

# Source: PMC8343220, “The selectivity of α‐adrenoceptor agonists for the human α1A, α1B, and α1D‐adrenoceptors” (Pharmacology Research & Perspectives, 2021)
